Test results taken from patent US8404670B2 (Sunovion Pharmaceuticals Inc., priority 2009, dated 2013).

Target: T1, human histamine H3 receptor (Homo sapiens, UniProt Q9Y5N1)
T1 construct: host or cells: cells expressing the human H3 receptor
Experiment: H3 GTPγS assay (SPA method), histamine H3 in vitro assay
Format: biochemical
Conditions: GTPγ[35S] binding to membranes of cells expressing human H3; antagonist mode with R-γ-Me-Histamine at EC80 (30 nM); in one embodiment HCl salts tested; read-out: Potency (functional potency as indicated by IC50)
Description: H3 GTPγS assay (SPA method) was performed at EuroScreen (Belgium, ES-392-C) using conventional methods. Briefly, cells expressing the human histamine H3 receptor were homogenized in 15 mM Tris-HCl pH 7.5, 2 mM MgCl2, 0.3 mM EDTA, and 1 mM EGTA. Membranes were washed twice in the above tris buffer, collected by centrifugation (40,000×g, 25 min), and re-suspended in 75 mM Tris-HCl pH 7.5, 12.5 mM MgCl2, 0.3 mM EDTA, 1 mM EGTA, and 250 mM sucrose. Membranes were frozen in liquid nitrogen until use. On the day of the assay, membranes were thawed and diluted in assay buffer (20 mM HEPES pH 7.4, 100 mM NaCl, 10 μg/ml saponin, 1 mM MgCl2) to give 500 μg/ml and mixed (v/v) with GDP in assay buffer for a final GDP concentration of 10 μM and incubated on ice for at least 15 min. PVT-WGA beads (Amersham, RPNQ001) were diluted in assay buffer at 50 mg/mL and mixed with GTPγ[^35S] (Amersham, SJ1308) diluted in assay buffer to give ˜25,000 dpm/10 μL and mixed vol/vol just before the start of the reaction. The reaction was started by adding 50 μL of test compound, 20 μL of the membranes:GDP mix, 10 μL of buffer, and 20 μL of the GTPγ[^35S]:beads mix in a 96 well plate Optiplate™ (PerkinElmer, 6005299) covered with topseal (TopCount™, PerkinElmer), mixed with an orbital shaker for 2 min, incubated for 1 hour at room temperature, centrifuged for 10 min at 2000 rpm, incubated for 1 h at room temperature, and counted for 1 min in a TopCount™ reader (PerkinElmer). Dose response curves and IC50 values (concentration to inhibit the reaction by 50%) were calculated by nonlinear regression using XLfit software (IDBS).
For antagonists testing, 10 μL of a reference agonist (R-γ-Me-Histamine) instead of 10 μL buffer was added at a concentration corresponding to the EC80 (30 nM). Control ligands were R-γ-Me-Histamine (Tocris, 0569), Imetit (Sigma, I-135), Thioperamide (Tocris, 0644), and Clobenpropit (Tocris, 0754) diluted in assay buffer.
The compounds provided herein were tested in the histamine H3 in vitro assay. In one embodiment, the respective HCl salts of the compounds provided herein were prepared using standard chemical procedures and tested in the histamine H3 in vitro assay.

T1 sequence (Q9Y5N1 whole entry): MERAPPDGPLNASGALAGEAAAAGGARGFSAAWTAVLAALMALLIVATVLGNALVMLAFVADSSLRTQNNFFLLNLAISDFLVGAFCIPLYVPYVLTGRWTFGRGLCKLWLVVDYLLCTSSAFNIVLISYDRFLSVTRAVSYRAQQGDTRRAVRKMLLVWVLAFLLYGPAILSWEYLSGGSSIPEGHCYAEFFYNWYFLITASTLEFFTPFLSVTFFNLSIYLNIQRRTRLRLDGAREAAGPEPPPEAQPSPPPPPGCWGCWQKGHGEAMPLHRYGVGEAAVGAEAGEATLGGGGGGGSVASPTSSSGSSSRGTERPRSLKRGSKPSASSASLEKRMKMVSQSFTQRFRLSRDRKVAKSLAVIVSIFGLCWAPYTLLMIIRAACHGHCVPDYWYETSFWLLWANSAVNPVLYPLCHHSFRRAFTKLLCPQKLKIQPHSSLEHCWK

`N#Cc1ccc(-c2ccc3nc4n(c3c2)CCN(C2CCC2)CC4)cc1` [Compound 41] and `N#Cc1ccc(CNc2ccc3nc4n(c3c2)CCN(C2CCC2)CC4)cc1` [Compound 81] cannot be ordered by IC50: at most 1000 nM for the first, at most 100 nM for the second.

First: CC(C)(C)c1ccc(-c2ccc3c(c2)nc2n3CCN(C3CCC3)CC2)cc1 [Compound 212, 8-(4-(tert-butyl)phenyl)-3-cyclobutyl-2,3,4,5-tetrahydro-1H-benzo[4,5]imidazo[1,2-d][1,4]diazepine]
Second: CC1CCC(N2CCc3nc4cc(-c5ccc(C#N)cc5)ccc4n3CC2)CC1 (mixture of isomers) [Compound 37, cis/trans-4-(3-(4-methylcyclohexyl)-2,3,4,5-tetrahydro-1H-[1,4]diazepino[1,7-a]benzimidazol-9-yl)benzonitrile]
The IC50 of the first is lower: at most 10 nM for the first, at least 1000 nM for the second.

`c1cc2c(cc1N1CCN(C3CCCCC3)CC1)nc1n2CCN(C2CCC2)CC1` [Compound 102] and `FC1CCN(c2ccc3c(c2)nc2n3CCN(C3CCC3)CC2)C1` (centres unmarked) [Compound 181, 3-cyclobutyl-8-(3-fluoropyrrolidin-1-yl)-2,3,4,5-tetrahydro-1H-benzo[4,5]imidazo[1,2-d][1,4]diazepine] cannot be ordered by IC50: at most 10 nM for the first, at most 100 nM for the second.

`c1cc2nc3n(c2cc1CN1CCOCC1)CCN(C1CCC1)CC3` [Compound 88, 3-cyclobutyl-8-(morpholin-1-ylmethyl)-2,3,4,5-tetrahydro-1H-[1,4]diazepino[1,7-a]benzimidazole] and `c1cc2nc3n(c2cc1CN1CCCC1)CCN(C1CCC1)CC3` [Compound 89] cannot be ordered by IC50: at most 10 nM for the first, at most 10 nM for the second.

`CN1CCN(c2cncc(-c3ccc4c(c3)nc3n4CCN(C4CCC4)CC3)n2)CC1` [Compound 95, 3-cyclobutyl-9-(6-(4-methylpiperazin-1-yl)pyrazin-2-yl)-2,3,4,5-tetrahydro-1H-[1,4]diazepino[1,7-a]benzimidazole] and `c1cc(-c2ccc3c(c2)nc2n3CCN(C3CCC3)CC2)nc(N2CCCC2)c1` [Compound 135, 3-cyclobutyl-8-(6-(pyrrolidin-1-yl)pyridin-2-yl)-2,3,4,5-tetrahydro-1H-benzo[4,5]imidazo[1,2-d][1,4]diazepine] cannot be ordered by IC50: at most 10 nM for the first, at most 100 nM for the second.

`O=C(C1CCC1)N1CCc2cc3nc4n(c3cc2C1)CCN(C1CCC1)CC4` [Compound 191, cyclobutyl(9-cyclobutyl-3,4,8,9,10,11-hexahydro-1H-[1,4]diazepino[1′,7′:1,2]imidazo[4,5-g]isoquinolin-2 (7H)-yl)methanone] and `O=C(C1CCC1)N1CCc2cc3c(cc2C1)nc1n3CCN(C2CCC2)CC1` [Compound 186, cyclobutyl(9-cyclobutyl-3,4,8,9,10,11-hexahydro-1H-[1,4]diazepino[7′,1′:2,3]imidazo[4,5-g]isoquinolin-2(7H)-yl)methanone] cannot be ordered by IC50: at most 100 nM for the first, at most 100 nM for the second.

First: c1c2c(cc3c1nc1n3CCN(C3CCC3)CC1)CN(CC1CC1)C2 [Compound 147, 8-cyclobutyl-2-(cyclopropylmethyl)-1,2,3,6,7,8,9,10-octahydro-[1,4]diazepino[1′,7′:1,2]imidazo[4,5-f]isoindole]
Second: c1cnc(N2Cc3cc4nc5n(c4cc3C2)CCN(C2CCC2)CC5)cn1 [Compound 149, 8-cyclobutyl-2-(pyrazin-2-yl)-1,2,3,6,7,8,9,10-octahydro-[1,4]diazepino[1′,7′:1,2]imidazo[4,5-f]isoindole]
The IC50 of the first is lower: at most 10 nM for the first, at least 1000 nM for the second.

`O=c1[nH]c2ccccc2n1-c1ccc2c(c1)nc1n2CCN(C2CCC2)CC1` [Compound 72, 1-(3-cyclobutyl-2,3,4,5-tetrahydro-1H-[1,4]diazepino[1,7-a]benzimidazol-9-yl)-1H-benzo[d]imidazol-2(3H)-one] and `c1ccc2c(c1)ncn2-c1ccc2c(c1)nc1n2CCN(C2CCC2)CC1` [Compound 68] cannot be ordered by IC50: at most 100 nM for the first, at most 10 nM for the second.

`c1cnc(-c2ccc3c(c2)nc2n3CCN(C3CCC3)CC2)cn1` [Compound 24] and `c1cnc(Cc2ccc3c(c2)nc2n3CCN(C3CCC3)CC2)cn1` [Compound 122, 3-cyclobutyl-8-(pyrazin-2-ylmethyl)-2,3,4,5-tetrahydro-1H-benzo[4,5]imidazo[1,2-d][1,4]diazepine] cannot be ordered by IC50: at most 10 nM for the first, at most 100 nM for the second.

`Cc1nc2ccc(F)cc2n1-c1ccc2c(c1)nc1n2CCN(C2CCC2)CC1` [Compound 208, 3-cyclobutyl-8-(6-fluoro-2-methyl-1H-benzo[d]imidazol-1-yl)-2,3,4,5-tetrahydro-1H-benzo[4,5]imidazo[1,2-d][1,4]diazepine] and `Cc1ccc2nc(C)n(-c3ccc4c(c3)nc3n4CCN(C4CCC4)CC3)c2c1` [Compound 209, 3-cyclobutyl-8-(2,6-dimethyl-1H-benzo[d]imidazol-1-yl)-2,3,4,5-tetrahydro-1H-benzo[4,5]imidazo[1,2-d][1,4]diazepine] cannot be ordered by IC50: at most 10 nM for the first, at most 10 nM for the second.

`c1cc2ncc(-c3ccc4c(c3)nc3n4CCN(C4CCC4)CC3)cc2[nH]1` [Compound 200, 3-cyclobutyl-8-(1H-pyrrolo[3,2-b]pyridin-6-yl)-2,3,4,5-tetrahydro-1H-benzo[4,5]imidazo[1,2-d][1,4]diazepine] and `c1cc2ncc(-c3ccc4c(c3)nc3n4CCN(C4CCC4)CC3)cc2o1` [Compound 201, 6-(3-cyclobutyl-2,3,4,5-tetrahydro-1H-benzo[4,5]imidazo[1,2-d][1,4]diazepin-8-yl)furo[3,2-b]pyridine] cannot be ordered by IC50: at most 10 nM for the first, at most 10 nM for the second.

`c1cnc(N2CCCC(c3ccc4c(c3)nc3n4CCN(C4CCC4)CC3)C2)cn1` (centres unmarked) [Compound 129, 3-cyclobutyl-8-(1-(pyrazin-2-yl)piperidin-3-yl)-2,3,4,5-tetrahydro-1H-benzo[4,5]imidazo[1,2-d][1,4]diazepine] and `c1cnc(OCc2ccc3c(c2)nc2n3CCN(C3CCC3)CC2)cn1` [Compound 109] cannot be ordered by IC50: at most 10 nM for the first, at most 10 nM for the second.

`c1cn(-c2ccc3c(c2)nc2n3CCN(C3CCC3)CC2)cn1` [Compound 66] and `c1cnn(-c2ccc3c(c2)nc2n3CCN(C3CCC3)CC2)n1` [Compound 151, 3-cyclobutyl-8-(2H-1,2,3-triazol-2-yl)-2,3,4,5-tetrahydro-1H-benzo[4,5]imidazo[1,2-d][1,4]diazepine] cannot be ordered by IC50: at most 10 nM for the first, at most 100 nM for the second.

`FC1(F)CCN(c2ccc3c(c2)nc2n3CCN(C3CCC3)CC2)CC1` [Compound 178, 3-cyclobutyl-8-(4,4-difluoropiperidin-1-yl)-2,3,4,5-tetrahydro-1H-benzo[4,5]imidazo[1,2-d][1,4]diazepine] and `FC1(F)CCN(Cc2ccc3c(c2)nc2n3CCN(C3CCC3)CC2)C1` [Compound 166, 3-cyclobutyl-8-((3,3-difluoropyrrolidin-1-yl)methyl)-2,3,4,5-tetrahydro-1H-benzo[4,5]imidazo[1,2-d][1,4]diazepine] cannot be ordered by IC50: at most 100 nM for the first, at most 10 nM for the second.

`CC(C)N1CCc2nc3cc(-c4ccc(C#N)cc4)ccc3n2CC1` [Compound 32, 4-(3-isopropyl-2,3,4,5-tetrahydro-1H-[1,4]diazepino[1,7-a]benzimidazol-9-yl)benzonitrile] and `N#Cc1ccc(N2CCN(c3ccc4c(c3)nc3n4CCN(C4CCC4)CC3)CC2)cc1` [Compound 228, 4-(4-(3-cyclobutyl-2,3,4,5-tetrahydro-1H-benzo[4,5]imidazo[1,2-d][1,4]diazepin-8-yl)piperazin-1-yl)benzonitrile] cannot be ordered by IC50: at most 100 nM for the first, at most 10 nM for the second.

`FC1CCN(Cc2ccc3c(c2)nc2n3CCN(C3CCC3)CC2)CC1` [Compound 159, 3-cyclobutyl-8-((4-fluoropiperidin-1-yl)methyl)-2,3,4,5-tetrahydro-1H-benzo[4,5]imidazo[1,2-d][1,4]diazepine] and `c1ccc(N2CCN(c3ccc4c(c3)nc3n4CCN(C4CCC4)CC3)CC2)cc1` [Compound 229, 3-cyclobutyl-8-(4-phenylpiperazin-1-yl)-2,3,4,5-tetrahydro-1H-benzo[4,5]imidazo[1,2-d][1,4]diazepine] cannot be ordered by IC50: at most 10 nM for the first, at most 10 nM for the second.

`CN(Cc1ccc2c(c1)nc1n2CCN(C2CCC2)CC1)C(=O)OCc1ccccc1` [Compound 142, benzyl((3-cyclobutyl-2,3,4,5-tetrahydro-1H-benzo[4,5]imidazo[1,2-d][1,4]diazepin-8-yl)methyl)(methyl)carbamate] and `c1cc2c(cc1-c1ccc3cncn3c1)nc1n2CCN(C2CCC2)CC1` [Compound 198, 3-cyclobutyl-8-(imidazo[1,5-a]pyridin-6-yl)-2,3,4,5-tetrahydro-1H-benzo[4,5]imidazo[1,2-d][1,4]diazepine] cannot be ordered by IC50: at most 100 nM for the first, at most 10 nM for the second.

For `c1cnc2[nH]cc(-c3ccc4c(c3)nc3n4CCN(C4CCC4)CC3)c2c1` [Compound 31], the IC50 was at most 10 nM.
